Assay results: article PMC4076210, “Discovery of Novel AKT Inhibitors with Enhanced Anti-Tumor Effects in Combination with the MEK Inhibitor” (PLoS ONE, 2014)
Like-named read-outs stand apart in the source and are kept apart here.

Tests used:
Type in all cases: biochemical
EphB3(h) = molecular target: T1, EphB3(h) (Homo sapiens, UniProt P54753); experiment: Kinase panel
T1 construct: purchased Millipore KinaseProfiler
T1 sequence (P54753 34-998): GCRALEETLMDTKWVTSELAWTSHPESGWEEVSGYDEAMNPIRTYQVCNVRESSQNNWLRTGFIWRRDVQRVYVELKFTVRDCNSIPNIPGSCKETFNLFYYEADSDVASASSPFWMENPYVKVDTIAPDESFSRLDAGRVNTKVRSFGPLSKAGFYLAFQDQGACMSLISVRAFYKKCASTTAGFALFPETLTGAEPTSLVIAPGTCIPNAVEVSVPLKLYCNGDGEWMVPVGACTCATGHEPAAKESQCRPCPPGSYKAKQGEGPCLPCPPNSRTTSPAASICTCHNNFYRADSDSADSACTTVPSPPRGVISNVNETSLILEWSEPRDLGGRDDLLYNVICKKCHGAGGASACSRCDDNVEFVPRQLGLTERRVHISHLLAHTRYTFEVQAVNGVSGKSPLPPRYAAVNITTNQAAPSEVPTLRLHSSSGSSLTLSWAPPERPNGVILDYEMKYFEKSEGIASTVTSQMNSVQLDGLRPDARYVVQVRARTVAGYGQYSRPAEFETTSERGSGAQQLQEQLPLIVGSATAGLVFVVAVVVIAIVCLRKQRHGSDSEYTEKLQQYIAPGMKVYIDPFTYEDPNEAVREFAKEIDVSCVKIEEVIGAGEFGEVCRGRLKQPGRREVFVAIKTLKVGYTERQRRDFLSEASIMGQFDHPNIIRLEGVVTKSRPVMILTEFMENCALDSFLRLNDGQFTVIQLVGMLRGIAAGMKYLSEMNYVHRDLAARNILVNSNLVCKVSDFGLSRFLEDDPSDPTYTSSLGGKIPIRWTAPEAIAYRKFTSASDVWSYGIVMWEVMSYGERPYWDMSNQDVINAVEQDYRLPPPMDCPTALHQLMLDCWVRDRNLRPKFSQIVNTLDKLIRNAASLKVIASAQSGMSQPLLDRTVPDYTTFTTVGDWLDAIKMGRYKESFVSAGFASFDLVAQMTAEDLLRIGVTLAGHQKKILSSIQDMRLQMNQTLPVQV

LOK(h) = molecular target: T2, LOK(h) (Homo sapiens, UniProt O94804); experiment: Kinase panel
T2 construct: purchased Millipore KinaseProfiler

CDK5/p25(h) = molecular target: T3, CDK5/p25(h) (Homo sapiens, UniProt Q00535); experiment: Kinase panel
T3 construct: purchased Millipore KinaseProfiler

MST2(h) = molecular target: T4, MST2(h) (Homo sapiens, UniProt Q13188); experiment: Kinase panel
T4 construct: purchased Millipore KinaseProfiler
T4 sequence (Q13188 1-491): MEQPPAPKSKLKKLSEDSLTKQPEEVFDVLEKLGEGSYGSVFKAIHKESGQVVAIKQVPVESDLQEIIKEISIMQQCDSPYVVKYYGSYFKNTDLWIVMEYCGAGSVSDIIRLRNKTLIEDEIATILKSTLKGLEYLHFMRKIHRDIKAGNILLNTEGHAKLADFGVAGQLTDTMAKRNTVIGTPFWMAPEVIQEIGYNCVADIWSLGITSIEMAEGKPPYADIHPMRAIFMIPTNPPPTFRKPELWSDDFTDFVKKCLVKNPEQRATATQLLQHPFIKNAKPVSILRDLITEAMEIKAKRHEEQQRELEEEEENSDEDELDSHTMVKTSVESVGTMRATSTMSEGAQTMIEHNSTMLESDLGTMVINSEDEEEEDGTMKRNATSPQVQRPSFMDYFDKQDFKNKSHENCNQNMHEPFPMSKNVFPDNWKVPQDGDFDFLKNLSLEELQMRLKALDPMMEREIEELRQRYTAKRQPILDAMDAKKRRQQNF

Ret(h) = molecular target: T5, Ret(h) (Homo sapiens, UniProt P07949); experiment: Kinase panel
T5 construct: purchased Millipore KinaseProfiler

cKit(V654A)(h) = molecular target: T6, cKit(V654A)(h) (Homo sapiens, UniProt P10721, V654A); experiment: Kinase panel
T6 construct: purchased Millipore KinaseProfiler

Fms(h) = molecular target: T7, Fms(h) (Homo sapiens, UniProt P07333); experiment: Kinase panel
T7 construct: purchased Millipore KinaseProfiler

PKCθ = PKCθ (Homo sapiens, UniProt Q04759); experiment: Kinase IC50 assay
KDR(h) = molecular target: T8, KDR(h) (Homo sapiens, UniProt P35968); experiment: Kinase panel
T8 construct: purchased Millipore KinaseProfiler

MSK1(h) = molecular target: T9, MSK1(h) (Homo sapiens, UniProt O75582); experiment: Kinase panel
T9 construct: purchased Millipore KinaseProfiler

ULK3(h) = molecular target: T10, ULK3(h) (Homo sapiens, UniProt Q6PHR2); experiment: Kinase panel
T10 construct: purchased Millipore KinaseProfiler
T10 sequence (Q6PHR2 1-472): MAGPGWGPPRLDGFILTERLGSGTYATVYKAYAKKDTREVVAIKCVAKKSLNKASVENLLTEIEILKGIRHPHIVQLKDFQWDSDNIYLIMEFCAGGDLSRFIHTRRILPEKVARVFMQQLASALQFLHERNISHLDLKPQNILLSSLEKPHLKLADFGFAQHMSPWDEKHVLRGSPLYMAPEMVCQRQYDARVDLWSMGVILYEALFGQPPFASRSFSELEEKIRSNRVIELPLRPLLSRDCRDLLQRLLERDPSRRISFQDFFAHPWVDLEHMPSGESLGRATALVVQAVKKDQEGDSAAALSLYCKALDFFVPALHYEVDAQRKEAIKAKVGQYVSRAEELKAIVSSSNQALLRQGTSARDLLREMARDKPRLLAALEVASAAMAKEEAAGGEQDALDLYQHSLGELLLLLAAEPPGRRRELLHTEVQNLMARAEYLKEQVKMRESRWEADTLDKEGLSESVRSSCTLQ

JAK2(h) = molecular target: T11, JAK2(h) (Homo sapiens, UniProt O60674); experiment: Kinase panel
T11 construct: purchased Millipore KinaseProfiler

CSK(h) = molecular target: T12, CSK(h) (Homo sapiens, UniProt P41240); experiment: Kinase panel
T12 construct: purchased Millipore KinaseProfiler

T6 sequence (P10721 26-976 V654A): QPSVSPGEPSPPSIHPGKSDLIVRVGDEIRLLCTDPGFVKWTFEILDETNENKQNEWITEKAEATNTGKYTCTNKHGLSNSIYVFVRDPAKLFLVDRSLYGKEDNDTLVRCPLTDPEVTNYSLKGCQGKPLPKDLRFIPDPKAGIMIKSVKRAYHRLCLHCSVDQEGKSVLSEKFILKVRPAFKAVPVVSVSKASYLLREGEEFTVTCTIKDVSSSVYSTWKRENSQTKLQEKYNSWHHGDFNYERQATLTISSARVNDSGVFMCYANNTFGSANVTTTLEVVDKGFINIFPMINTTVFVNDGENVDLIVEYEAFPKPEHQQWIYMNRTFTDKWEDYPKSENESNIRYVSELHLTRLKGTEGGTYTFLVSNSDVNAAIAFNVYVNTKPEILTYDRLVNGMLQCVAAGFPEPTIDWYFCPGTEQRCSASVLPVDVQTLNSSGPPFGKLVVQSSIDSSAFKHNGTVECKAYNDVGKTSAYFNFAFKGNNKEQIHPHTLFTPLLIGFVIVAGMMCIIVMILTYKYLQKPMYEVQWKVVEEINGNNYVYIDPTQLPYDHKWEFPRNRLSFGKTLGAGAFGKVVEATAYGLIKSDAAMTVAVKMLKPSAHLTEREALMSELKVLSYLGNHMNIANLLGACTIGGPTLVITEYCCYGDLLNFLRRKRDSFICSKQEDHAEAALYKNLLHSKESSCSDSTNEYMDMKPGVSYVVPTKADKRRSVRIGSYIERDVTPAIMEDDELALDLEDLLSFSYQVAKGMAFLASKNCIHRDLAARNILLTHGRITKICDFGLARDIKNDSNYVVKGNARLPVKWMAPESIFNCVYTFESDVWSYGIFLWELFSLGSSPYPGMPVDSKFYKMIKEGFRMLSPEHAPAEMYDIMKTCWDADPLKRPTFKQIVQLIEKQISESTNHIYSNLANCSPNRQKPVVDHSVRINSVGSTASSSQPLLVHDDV
T11 sequence (O60674 whole entry): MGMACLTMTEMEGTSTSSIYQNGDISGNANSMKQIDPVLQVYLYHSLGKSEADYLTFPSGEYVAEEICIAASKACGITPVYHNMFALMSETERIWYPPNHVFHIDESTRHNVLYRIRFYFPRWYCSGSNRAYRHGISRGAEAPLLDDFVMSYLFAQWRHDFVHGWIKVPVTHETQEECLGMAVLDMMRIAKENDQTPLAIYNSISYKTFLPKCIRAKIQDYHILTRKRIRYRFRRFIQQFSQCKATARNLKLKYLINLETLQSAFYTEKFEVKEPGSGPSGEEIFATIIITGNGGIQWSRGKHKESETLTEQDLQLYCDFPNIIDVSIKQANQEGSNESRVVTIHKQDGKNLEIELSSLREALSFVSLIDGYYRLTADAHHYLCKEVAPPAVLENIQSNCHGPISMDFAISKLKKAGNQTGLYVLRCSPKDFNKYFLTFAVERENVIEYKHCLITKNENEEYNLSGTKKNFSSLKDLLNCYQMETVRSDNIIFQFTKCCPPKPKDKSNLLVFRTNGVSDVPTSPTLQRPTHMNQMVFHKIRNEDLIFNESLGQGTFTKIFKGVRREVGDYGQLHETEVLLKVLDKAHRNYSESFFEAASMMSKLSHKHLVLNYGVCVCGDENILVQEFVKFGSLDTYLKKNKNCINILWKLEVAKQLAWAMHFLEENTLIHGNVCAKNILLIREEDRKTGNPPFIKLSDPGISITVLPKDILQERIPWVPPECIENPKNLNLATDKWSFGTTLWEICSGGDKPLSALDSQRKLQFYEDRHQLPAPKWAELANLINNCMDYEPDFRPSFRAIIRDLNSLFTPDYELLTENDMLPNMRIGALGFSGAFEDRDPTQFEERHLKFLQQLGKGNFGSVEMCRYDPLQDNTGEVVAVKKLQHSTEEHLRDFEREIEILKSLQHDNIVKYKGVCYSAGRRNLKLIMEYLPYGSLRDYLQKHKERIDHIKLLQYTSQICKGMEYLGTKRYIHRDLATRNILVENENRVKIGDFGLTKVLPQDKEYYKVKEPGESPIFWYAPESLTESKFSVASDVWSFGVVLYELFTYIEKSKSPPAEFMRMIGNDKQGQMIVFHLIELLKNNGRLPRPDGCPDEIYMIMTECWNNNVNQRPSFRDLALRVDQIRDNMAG
T9 sequence (O75582 whole entry): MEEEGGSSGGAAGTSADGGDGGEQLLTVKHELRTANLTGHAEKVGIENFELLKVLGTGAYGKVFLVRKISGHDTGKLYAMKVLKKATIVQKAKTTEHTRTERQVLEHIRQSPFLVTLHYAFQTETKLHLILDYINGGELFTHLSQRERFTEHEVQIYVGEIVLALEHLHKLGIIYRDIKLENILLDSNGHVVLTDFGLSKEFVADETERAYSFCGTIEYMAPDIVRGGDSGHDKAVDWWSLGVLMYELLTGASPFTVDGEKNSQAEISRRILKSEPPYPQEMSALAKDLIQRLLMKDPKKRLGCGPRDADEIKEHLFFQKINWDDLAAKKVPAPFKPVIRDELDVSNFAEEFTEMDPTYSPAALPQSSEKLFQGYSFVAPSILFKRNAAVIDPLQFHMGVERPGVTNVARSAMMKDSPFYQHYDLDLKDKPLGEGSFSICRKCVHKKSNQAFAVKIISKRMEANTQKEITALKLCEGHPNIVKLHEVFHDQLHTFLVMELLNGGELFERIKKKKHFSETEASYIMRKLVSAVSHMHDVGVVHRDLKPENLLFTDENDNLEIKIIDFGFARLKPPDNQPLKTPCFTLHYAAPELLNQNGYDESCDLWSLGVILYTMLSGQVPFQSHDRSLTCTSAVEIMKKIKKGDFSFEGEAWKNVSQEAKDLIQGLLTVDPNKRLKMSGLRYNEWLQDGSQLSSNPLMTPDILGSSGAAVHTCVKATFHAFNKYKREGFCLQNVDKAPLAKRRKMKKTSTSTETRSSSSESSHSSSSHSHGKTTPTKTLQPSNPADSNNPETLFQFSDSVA
T7 sequence (P07333 20-972): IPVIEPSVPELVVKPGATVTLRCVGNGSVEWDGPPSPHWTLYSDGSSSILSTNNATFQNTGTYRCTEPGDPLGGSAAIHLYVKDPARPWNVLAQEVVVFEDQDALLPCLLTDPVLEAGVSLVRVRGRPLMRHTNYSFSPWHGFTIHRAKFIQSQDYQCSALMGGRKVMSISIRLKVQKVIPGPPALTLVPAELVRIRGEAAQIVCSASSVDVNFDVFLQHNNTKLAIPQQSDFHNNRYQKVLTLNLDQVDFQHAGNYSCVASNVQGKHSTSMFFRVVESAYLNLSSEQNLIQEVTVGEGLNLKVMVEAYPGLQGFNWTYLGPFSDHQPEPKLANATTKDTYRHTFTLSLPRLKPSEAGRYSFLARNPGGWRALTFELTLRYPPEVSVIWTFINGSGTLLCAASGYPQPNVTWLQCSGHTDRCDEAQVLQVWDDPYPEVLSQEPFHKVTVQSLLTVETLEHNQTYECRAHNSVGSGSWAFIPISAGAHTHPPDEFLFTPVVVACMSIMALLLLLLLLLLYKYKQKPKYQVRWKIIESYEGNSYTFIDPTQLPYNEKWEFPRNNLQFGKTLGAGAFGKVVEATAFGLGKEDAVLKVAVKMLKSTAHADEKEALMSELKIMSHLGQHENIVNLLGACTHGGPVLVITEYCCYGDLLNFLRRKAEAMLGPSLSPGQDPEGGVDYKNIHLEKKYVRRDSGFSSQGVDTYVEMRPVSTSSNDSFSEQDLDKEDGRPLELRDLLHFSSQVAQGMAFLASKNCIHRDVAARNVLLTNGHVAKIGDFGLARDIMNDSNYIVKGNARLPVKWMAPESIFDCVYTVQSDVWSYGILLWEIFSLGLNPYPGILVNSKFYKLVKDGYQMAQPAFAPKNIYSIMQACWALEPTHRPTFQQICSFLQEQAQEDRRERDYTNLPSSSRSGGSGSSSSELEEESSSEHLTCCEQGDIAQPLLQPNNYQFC
T5 sequence (P07949 29-1114): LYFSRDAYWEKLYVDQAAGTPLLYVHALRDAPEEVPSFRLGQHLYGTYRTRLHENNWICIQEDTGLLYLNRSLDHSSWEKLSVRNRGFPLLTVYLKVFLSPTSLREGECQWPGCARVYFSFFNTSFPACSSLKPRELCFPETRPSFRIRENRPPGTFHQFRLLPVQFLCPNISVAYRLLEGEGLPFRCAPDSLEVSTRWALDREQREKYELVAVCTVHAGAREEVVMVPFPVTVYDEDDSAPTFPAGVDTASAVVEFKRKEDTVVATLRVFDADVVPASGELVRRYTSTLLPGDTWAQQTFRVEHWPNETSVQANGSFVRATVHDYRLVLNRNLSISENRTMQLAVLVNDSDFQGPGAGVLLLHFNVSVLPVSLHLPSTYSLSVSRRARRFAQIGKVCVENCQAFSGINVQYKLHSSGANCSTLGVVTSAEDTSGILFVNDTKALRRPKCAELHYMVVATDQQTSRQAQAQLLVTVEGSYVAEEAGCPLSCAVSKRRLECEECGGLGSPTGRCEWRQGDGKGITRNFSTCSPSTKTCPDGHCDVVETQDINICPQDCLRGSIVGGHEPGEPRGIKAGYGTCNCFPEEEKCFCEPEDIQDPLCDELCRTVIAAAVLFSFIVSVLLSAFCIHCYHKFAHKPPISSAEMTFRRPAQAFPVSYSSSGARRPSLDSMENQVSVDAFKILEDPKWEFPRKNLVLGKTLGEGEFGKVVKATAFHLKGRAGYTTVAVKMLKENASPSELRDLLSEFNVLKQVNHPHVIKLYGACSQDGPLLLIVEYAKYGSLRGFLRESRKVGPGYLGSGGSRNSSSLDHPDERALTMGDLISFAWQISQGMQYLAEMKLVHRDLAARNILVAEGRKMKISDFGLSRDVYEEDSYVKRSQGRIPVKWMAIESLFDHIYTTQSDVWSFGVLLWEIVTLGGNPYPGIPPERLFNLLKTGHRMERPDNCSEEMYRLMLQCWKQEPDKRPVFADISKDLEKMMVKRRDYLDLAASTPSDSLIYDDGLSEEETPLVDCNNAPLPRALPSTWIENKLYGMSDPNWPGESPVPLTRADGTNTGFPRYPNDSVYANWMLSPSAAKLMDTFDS

Cn1ncc(Cl)c1-c1cc(C(=O)N[C@H](CN)Cc2ccc(F)c(F)c2)oc1Cl [GSK2141795]
inhibition at 0.5 µM (EphB3(h); 0.5 µM, read-out: % Inhibition): -2%
inhibition at 10 µM (EphB3(h); 10 µM, read-out: % Inhibition): 9%
inhibition at 0.5 µM (LOK(h); 0.5 µM, read-out: % Inhibition): -14%
inhibition at 10 µM (LOK(h); 10 µM, read-out: % Inhibition): 11%
inhibition at 0.5 µM (CDK5/p25(h); 0.5 µM, read-out: % Inhibition): -8%
inhibition at 10 µM (CDK5/p25(h); 10 µM, read-out: % Inhibition): 37%
inhibition at 0.5 µM (MST2(h); 0.5 µM, read-out: % Inhibition): -2%
inhibition at 10 µM (MST2(h); 10 µM, read-out: % Inhibition): 4%
inhibition at 0.5 µM (Ret(h); 0.5 µM, read-out: % Inhibition): -19%
inhibition at 10 µM (Ret(h); 10 µM, read-out: % Inhibition): 31%
inhibition at 0.5 µM (cKit(V654A)(h); 0.5 µM, read-out: % Inhibition): -2%
inhibition at 10 µM (cKit(V654A)(h); 10 µM, read-out: % Inhibition): -3%
inhibition at 0.5 µM (Fms(h); 0.5 µM, read-out: % Inhibition): -13%
inhibition at 10 µM (Fms(h); 10 µM, read-out: % Inhibition): 3%
IC50 (PKCθ): 64 nM
inhibition at 0.5 µM (KDR(h); 0.5 µM, read-out: % Inhibition): -6%
inhibition at 10 µM (KDR(h); 10 µM, read-out: % Inhibition): -3%
inhibition at 0.5 µM (MSK1(h); 0.5 µM, read-out: % Inhibition): 90%
inhibition at 10 µM (MSK1(h); 10 µM, read-out: % Inhibition): 95%
inhibition at 0.5 µM (ULK3(h); 0.5 µM, read-out: % Inhibition): 0%
inhibition at 10 µM (ULK3(h); 10 µM, read-out: % Inhibition): 49%
inhibition at 0.5 µM (JAK2(h); 0.5 µM, read-out: % Inhibition): -13%
inhibition at 10 µM (JAK2(h); 10 µM, read-out: % Inhibition): -27%
inhibition at 0.5 µM (CSK(h); 0.5 µM, read-out: % Inhibition): 0%
inhibition at 10 µM (CSK(h); 10 µM, read-out: % Inhibition): -14%

Cn1ncc(Cl)c1-c1cc(C(=O)N[C@H](CN)Cc2cccc(F)c2)sc1Cl [GSK2110183]
inhibition at 0.5 µM (EphB3(h)): 12%
inhibition at 10 µM (EphB3(h)): -9%
inhibition at 0.5 µM (LOK(h)): -9%
inhibition at 10 µM (LOK(h)): 5%
inhibition at 0.5 µM (CDK5/p25(h)): -4%
inhibition at 10 µM (CDK5/p25(h)): 28%
inhibition at 0.5 µM (MST2(h)): -4%
inhibition at 10 µM (MST2(h)): -2%
inhibition at 0.5 µM (Ret(h)): 4%
inhibition at 10 µM (Ret(h)): 14%
inhibition at 0.5 µM (cKit(V654A)(h)): -9%
inhibition at 10 µM (cKit(V654A)(h)): -9%
inhibition at 0.5 µM (Fms(h)): -1%
inhibition at 10 µM (Fms(h)): 3%
IC50 (PKCθ): 510 nM
inhibition at 0.5 µM (KDR(h)): 13%
inhibition at 10 µM (KDR(h)): 7%
inhibition at 0.5 µM (MSK1(h)): 85%
inhibition at 10 µM (MSK1(h)): 98%
inhibition at 0.5 µM (ULK3(h)): 20%
inhibition at 10 µM (ULK3(h)): 72%
inhibition at 0.5 µM (JAK2(h)): -31%
inhibition at 10 µM (JAK2(h)): -55%
inhibition at 0.5 µM (CSK(h)): 11%
inhibition at 10 µM (CSK(h)): 15%
